Reference: PubChem BioAssay (NCI)
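Method: 48-hour compound exposure of cells in 96-well plates, five concentrations, linear interpolation of endpoints. GI50 marks 50% less growth. TGI: total growth inhibition.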

Experiments:
Assay in all cases: NCI-60 cell line screen, 48 h
A498 renal = test system: A498 renal
ACHN renal = test system: ACHN renal
EKVX NSCLC = test system: EKVX NSCLC
HCT-116 colon = test system: HCT-116 colon
HOP-92 NSCLC = test system: HOP-92 NSCLC
KM12 colon = test system: KM12 colon
NCI-H460 lung = test system: NCI-H460 lung
RXF 393 renal = test system: RXF 393 renal
TK-10 renal = test system: TK-10 renal
U251 CNS = test system: U251 CNS

Compound | TGI (A498 renal) [µM] | TGI (ACHN renal) [µM] | TGI (EKVX NSCLC) [µM] | TGI (HCT-116 colon) [µM] | TGI (HOP-92 NSCLC) [µM] | TGI (KM12 colon) [µM] | TGI (NCI-H460 lung) [µM] | TGI (RXF 393 renal) [µM] | TGI (TK-10 renal) [µM] | TGI (U251 CNS) [µM] | GI50 (A498 renal) [µM] | GI50 (ACHN renal) [µM] | GI50 (EKVX NSCLC) [µM] | GI50 (HCT-116 colon) [µM] | GI50 (HOP-92 NSCLC) [µM] | GI50 (KM12 colon) [µM] | GI50 (NCI-H460 lung) [µM] | GI50 (RXF 393 renal) [µM] | GI50 (TK-10 renal) [µM] | GI50 (U251 CNS) [µM]
Fc1cc(F)c(F)c(S)c1F | 33.2 | > 100 | 55.2 | > 100 | > 100 | > 100 | > 100 | 54.8 | > 100 | > 100 | – | – | – | – | – | – | – | – | – | –
Cc1ccc(C)c2c1C(=O)N(c1ccc(F)cc1F)C2=O | > 100 | > 100 | > 100 | > 100 | > 100 | > 100 | > 100 | > 100 | > 100 | > 100 | > 100 | > 100 | > 100 | > 100 | 1.11 | > 100 | > 100 | > 100 | > 100 | 89.3
ClCCCSSCCCCl | > 100 | > 100 | > 100 | > 90.8 | > 72.8 | > 95.1 | > 100 | > 100 | > 100 | > 100 | – | – | – | – | – | – | – | – | – | –
CN(C)C1CCN(Cc2ccc(NC(=O)c3cncc(C#Cc4cnc(N)c5ncccc45)c3)cc2C(F)(F)F)CC1 | 14.1 | 1.51 | 18.7 | 18 | 11.3 | 6.88 | 2.5 | 7.67 | 19.5 | 2.22 | 5.65 | 0.828 | 8.46 | 8.28 | 2.77 | 0.236 | 1.12 | 1.9 | 9.69 | 1.03
